Data: patent US20240374613A1, “BIOACTIVE MOLECULES FOR USE IN TREATING INSULIN RESISTANCE AND/OR RESTORING GLUCOSE HOMEOSTASIS” (PALTECH, priority 2021, published 2024)

Legend:
GLP-1r = conditions: DHT infusion 10 mg daily, one month after surgery
Protocol: (§1) The method was evaluated on 15 miniature pigs aged 5 years old (INRAE, UEPR, Saint-Gilles, France) and rendered insulin resistant after 3-4 months high fat high sucrose dict ingestion in excess according to already published data (Malbert et al., 2017b). The diet supplied 4024 kcal per kg of feed and was presented twice daily so that the animals could eat up to 150% of the recommended caloric intake (288 kcal/kg BW^0.75).
Once obese and insulin resistant, the animals were distributed into three groups of equal size (n=5 animals). One group served as control and was submitted only to a dummy implantation procedure including the initial GLP-1r PET imaging sequence using [68Ga]Ga-DO3A-VS-Cys40-Exendin-4. The second group was implanted during a laparoscopic procedure with a silicon catheter (2 mm OD) with its tip located at the portal sensor close to the minimum GLP-1r expression area according to the procedure described in 3.3. The terminal part of the catheter was bend at 90° to enter the periportal area. The catheter was secured at the entrance of the periportal cavity using a dacron surgical mesh (Biomesh P1, Cousin Bioserv Paris) glued to the silicon rubber prior to the implantation. During the implantation, the surgical mesh was glued to the outer layer of the portal vein using a surgical glue dispenser Glubran 2 and Glutack Cousin Bioserv Paris). […]

[1] = DHT infusion 10 mg/24 H, mean ± SD, N=5
Protocol: as §1
(§2) Once obese and insulin resistant, the animals were distributed into three groups of equal size (n=5 animals). One group served as control and was submitted only to a dummy implantation procedure including the initial GLP-1r PET imaging sequence using [68Ga]Ga-DO3A-VS-Cys40-Exendin-4. The second group was implanted during a laparoscopic procedure with a silicon catheter (2 mm OD) with its tip located at the portal sensor close to the minimum GLP-1r expression area according to the procedure described in 3.3. The terminal part of the catheter was bend at 90° to enter the periportal area. The catheter was secured at the entrance of the periportal cavity using a dacron surgical mesh (Biomesh P1, Cousin Bioserv Paris) glued to the silicon rubber prior to the implantation. During the implantation, the surgical mesh was glued to the outer layer of the portal vein using a surgical glue dispenser Glubran 2 and Glutack Cousin Bioserv Paris). The opposite tip of the catheter exited between the shoulder of the animal and was connected to an elastomeric pump. The pump (Easypump, II, BBraun) delivered 2 mL per hour of a solution of dihydrotestosterone (Sigma, Paris) in sterile water/DMSO (100:5 V/V) so that 10 mg of dihydrotestosterone was infused daily. The amount of the active molecule was irrespective of the body weight (BW). The pump was located in a lateral pocket of a jacket Whose size was adjusted for obese Yucantan minipigs (Lomir, Canada) and wore by the animal for the duration of the experiment. The third group was implanted during a laparoscopic procedure with an implant delivering 100 μg of dihydrostestoterone daily (Belma Technologies, Belgium) irrespective of the weight of the animal. The implant was inserted in the periportal area and the insertion hole achieved on the mesenteric layer for insertion was closed by a patch of surgical mesh glued directly on the meso using a procedure similar that described above. The anesthesia and surgical approach used for laparoscopy were identical those already described by Malbert et al. (Malbert et al., 2017b).
The protocol was described in FIG. 5 and consisted of two periods; one during which an obese insulin resistant status is achieved followed by a one-month post-surgery period during which DHT was slowly release according to the method of delivery described above. […]

[2] = Protocol: as §1, §2
The protocol was described in FIG. 5 and consisted of two periods; one during which an obese insulin resistant status is achieved followed by a one-month post-surgery period during which DHT was slowly release according to the method of delivery described above. For control and implant groups only, the experimental period was also extended for an additional month to evaluate the capacity of the method to achieve a sustained effect on glucose metabolism. This extended period was not achievable on catheter implanted animals due to ethical constraints. A one-week recovery period is inserted in the protocol after the initial PET GLP-1r scan and after the surgery. The data acquired during these periods were discarded from further analysis.
Distribution of GLP-1r along the portal vein and within the abdominal organs was obtained during an initial PET scan after the administration of 25 to 40 MBq [68Ga]Ga-DO3A-VS-Cys40-Exendin-4 according to the above section 3 of the examples. The portal area of low GLP-1r expression was identified and used for insertion of either the catheter tip or the DHT implant according to the above section 3.3 relating to laparoscopic access. The anesthesia and overall procedure for imaging is identical that described by Malbert et al (Malbert et al., 2020b). The same PET scan procedure was repeated one month after the surgical procedure allowing to compare between groups and within subjects of the same group the changes in GLP-1r distribution.

muscle protein synthesis = conditions: effect in muscle protein synthesis; in the form of gel applied cutaneous; cited from earlier work
[3] = periportal catheter, first 30 days after surgery
[4] = 30 days after the implantation surgery
[5] = DHT infusion 10 mg/24 H, periportal catheter, first 30 days after surgery, mean ± SD, N=5
[6] = DHT infusion 10 mg/24 H, 30 days after the implantation surgery, mean ± SD, N=5

C[C@]12CCC(=O)C[C@@H]1CC[C@@H]1[C@@H]2CC[C@]2(C)[C@@H](O)CC[C@@H]12 [DHT infusion, dihydrotestosterone]
Portal GLP-1r binding potential/volume of distribution compared to control (GLP-1r): more than doubled | Non portal (pancreatic) GLP-1r binding (GLP-1r; ns vs control): 4.8±0.41 | Body weight [1, 3]: 80.8 ± 2.0 kg | Daily ingestion [1, 3]: 8.6 ± 0.03 g/kg · day | Basal metabolic rate [1, 4]: 0.0079 ± 0.0007 kcal/min/kg | Fasting glucose oxidation rate [1, 4]: 1.8 ± 0.10 mg/min · kg | Abdominal fat [2, 5]: 38.1 ± 0.7!^ % of BW | Fat [2, 5]: 36.8 ± 0.5 % of BW | Liver to spleen ratio [2, 5]: 1.1 ± 0.02 | Mean arterial pressure [2, 5]: 79 ± 3.1 mmHg | Muscle [2, 5]: 6.5 ± 1.0 % of BW | Pulse rate [2, 5]: 104 ± 8.7 min⁻¹ | Systolic blood pressure [2, 5]: 55 ± 2.1 mmHg | Clamp plasma insulin [2, 6]: 501 ± 14.1 μU/mL | Fasting plasma glucose [2, 6]: 4.2 ± 0.23 mmol/L | Fasting plasma insulin [2, 6]: 2.1 ± 0.21 μU/mL | Mean plasma glucose at clamp plateau [2, 6]: 4.2 ± 0.36 mmol/L | Insulin sensitivity ([2]; DHT infusion 10 mg/24 H, euglycemic hyperinsulinemic clamp plateau, 30 days after the implantation surgery, mean ± SD, N=5): 6.8 ± 0.20 dL/kg · min/μMU/mL*1E−3

C[C@]12CCC(=O)C[C@@H]1CC[C@@H]1[C@@H]2CC[C@]2(C)[C@@H](O)CC[C@@H]12 [DHT, dihydrotestosterone]
ED50 (muscle protein synthesis): 20 mg daily | Circulating insulin as fraction of the insulinemia measured in control group ([2]; DHT treated animals (both groups), fasting, 30 days after surgery): 1/3 | Whole-body insulin sensitivity change compared to control ([2]; euglycemic hyperinsulinemic clamp, irrespective of the DHT group): one third increase
